Reference: patent publication US7943128B2, “Anti-microbial compositions comprising a cationic peptide and a glycylglycine endopeptidase” (priority 2006, dated 2011)
Positions of bridges follow the written chain, without caps; N, C: chain ends. No end group written: not given here.

Assays:
[1] = tested on: Staphylococcus aureus MRSA252; experiment: Microtitre plate growth inhibition in TSB, 48 hours, turbidity; type: cell-based; settings: for concentration needed for inhibition, compound alone: MRSA252, 48 hours, in the absence of the other compound
Protocol: (§1) Staphylococcus aureus strains MSSA476 (left) and MRSA252 (right) were cultivated in TSB (Tryptone Soya Broth; Oxoid Basingstoke, UK) to mid-exponential phase. Cultures were then diluted in fresh medium to a starting optical density of 600 nm of 0.001 (approximately 1.0×10^6 cells/ml). Growth of 100 μl volume cultures was measured in 96-well culture plates using TSB as control for 37° C. for 48 hours without shaking in the presence of 0 μg ranalexin/ml medium to 50 μg/ml, increasing stepwise by 5 μg/ml. 8 samples were cultivated for each concentration of ranalexin and to each such sample a different concentration of lysostaphin was added from 0 μg/ml to 1.05 μg/ml in steps of 0.15 μg/ml. The antibacterial activity was measured by reduced turbidity measured by optical density by scanning on an Image Scanner (GE Healthcare UK Ltd) using Image Master Labscan v.3 software. The concentration of ranalexin is indicated above the respective column, each well of a column having the same ranalexin concentration. The wells of each row contain lysostaphin at a final concentration of 0 μg lysostaphin per ml medium to 1.05 μg/ml (as indicated on left), increasing stepwise by 0.15 μg/ml. For S. aureus MSSA476 cultivated in the absence of lysostaphin, ranalexin provides an inhibitory effect at concentrations above 30 μg/ml medium (typically 35 to 40 μg/ml). […] The combination of ranalexin and lysostaphin reduces the necessary amount of each of the compounds by providing a synergistic antimicrobial effect.
(§2) Staphylococcus aureus strains MSSA476 (left) and MRSA252 (right) were cultivated in TSB medium as described in Example 1, except for the narrower concentration ranges of ranalexin and lysostaphin. Ranalexin is provided at concentrations of 0 μg/ml, 0.5 μg/ml and 1 μg/ml to 10 μg/ml, increasing stepwise by 1 μg/ml medium, and lysostaphin concentrations of 0 μg/ml to 0.2 μg/ml, with intermediate concentrations of 0.01 μg/ml, 0.025 μg/ml, 0.05 μg/ml, 0.075 μg/ml, 0.1 μg/ml and 0.15 μg/ml as indicated in FIG. 2.

MRSA252 = experiment: Bactericidal assay, survivors after 30 minute exposure in TSB broth; type: cell-based, Staphylococcus aureus
Protocol: MRSA252 in TSB broth was exposed for 30 mins to either: increasing concentrations (0, 1, 2, 4, 6, 8 and 10 μg/ml) of ranalexin alone (filled squares); increasing concentrations (0.0, 0.01, 0.02, 0.04, 0.06, 0.08, 0.1 μg/ml) of lysostaphin alone (filled circles); or a combination of 8 μg/ml ranalexin with increasing concentrations (0.0, 0.01, 0.02, 0.04, 0.06, 0.08, 0.1 μg/ml) of lysostaphin. Total cell numbers, or survivors, after a 30 minute exposure to each of the above conditions were determined by serial dilution and plating on TSB agar. Survivors were determined after 24 hours incubation of the TSB plates at 37° C. and expressed as the log of colony forming units per ml of broth. The arrows on FIG. 7 indicate that the numbers of survivors were less than the minimum detectable by this method.

[2] = tested on: Staphylococcus aureus MRSA252 and Staphylococcus aureus MSSA476; experiment: Impregnated dried paper disks on TSA plates, zones of inhibition; type: cell-based; settings: none at lower amounts
Protocol: Sterile Whatman paper disks were impregnated with ranalexin (0.5, 1, 2, 5, 10 or 20 μg), with lysostaphin (0.1, 0.2, 0.5, 1, 2 or 5 μg), a combination of 1 μg lysostaphin and ranalexin (0.5, 1, 2, 5, 10 or 20 μg), or a combination of 10 μg ranalexin and lysostaphin ([…], 0.5, 1, 2 or 5 μg). The paper disks were allowed to dry overnight and then stored at −20° C. until required.
Cultures of Staphylococcus aureus MRSA252 and Staphylococcus aureus MSSA476 were grown to mid-log phase (OD600 0.6-0.9) and diluted to 0.6 if necessary. 150 μl of the culture was then spread onto TSA (Tryptone Soya Agar; Oxoid, Basingstoke, UK) plates and allowed to dry. An impregnated paper disk prepared as described above was placed centrally on the agar plates. Plates were incubated for 20 hours at 37° C. before visual assessment of the zones of inhibition (see FIG. 8) which were visible as clear areas around the disks.

[3] = tested on: Staphylococcus aureus MSSA476; experiment: Microtitre plate growth inhibition in TSB, 48 hours, turbidity; type: cell-based
Protocol: as §1, §2

[4] = tested on: Staphylococcus aureus strains MSSA476 and MRSA252; experiment: Microtitre plate growth inhibition with dermaseptin s3(1-16) or magainin 2 and lysostaphin (Examples 3, 4); type: cell-based; settings: either strain, up to 50 μg ml^−1

| Substance | concentration needed for inhibition, compound alone [1] | effect on viability (MRSA252; ranalexin alone up to 10 μg ml^−1, 30 minutes) | zone of inhibition, agent alone ([2]; disk with 20 μg ranalexin) | MIC ([1]; MRSA252, lysostaphin alone) | concentration providing an inhibitory effect, compound alone ([3]; MSSA476, 48 hours, in the absence of the other compound) | MIC ([3]; MSSA476, lysostaphin alone) | reduction in numbers (MRSA252; 0.06 μg ml^−1 lysostaphin, 30 minutes) | effect on viable cell numbers (MRSA252; lysostaphin alone, 0.01 to 0.1 μg ml, 30 minutes) | zone of inhibition, agent alone ([2]; disk with 5 μg lysostaphin) | inhibitory effect of the peptide alone [4] |
| --- | --- | --- | --- | --- | --- | --- | --- | --- | --- | --- |
| ranalexin: 20 amino acid bullfrog peptide FLGGLIKIVPAMICAVTKKC (SEQ ID NO 1) with a single intramolecular disulphide bond (FLGGLIKIVPAMICAVTKKC; disulfide 14-20 (inferred); listed as Rana catesbeiana) | above 40 μg/ml | no detectable effect on viability | some minimal inhibition |  |  |  |  |  |  |  |
| lysostaphin: 27 kDa zinc-dependent metallopeptidase (glycylglycine endopeptidase) secreted by Staphylococcus simulans and S. staphylolyticus | above 0.45 μg/ml |  |  | approximately 0.45 μgml | above 0.75 μg/ml | approximately 0.75 μg/ml | 0.5 log | minor decrease in viable cell numbers | some minimal inhibition |  |
| Magainin 2 |  |  |  |  |  |  |  |  |  | little inhibitory effect |
